The structures appear in SMILES notation.

recombinant Human Phosphodiesterase B2 (PDE4B2), sequence (Q07343 1-564 isoform Q07343-2): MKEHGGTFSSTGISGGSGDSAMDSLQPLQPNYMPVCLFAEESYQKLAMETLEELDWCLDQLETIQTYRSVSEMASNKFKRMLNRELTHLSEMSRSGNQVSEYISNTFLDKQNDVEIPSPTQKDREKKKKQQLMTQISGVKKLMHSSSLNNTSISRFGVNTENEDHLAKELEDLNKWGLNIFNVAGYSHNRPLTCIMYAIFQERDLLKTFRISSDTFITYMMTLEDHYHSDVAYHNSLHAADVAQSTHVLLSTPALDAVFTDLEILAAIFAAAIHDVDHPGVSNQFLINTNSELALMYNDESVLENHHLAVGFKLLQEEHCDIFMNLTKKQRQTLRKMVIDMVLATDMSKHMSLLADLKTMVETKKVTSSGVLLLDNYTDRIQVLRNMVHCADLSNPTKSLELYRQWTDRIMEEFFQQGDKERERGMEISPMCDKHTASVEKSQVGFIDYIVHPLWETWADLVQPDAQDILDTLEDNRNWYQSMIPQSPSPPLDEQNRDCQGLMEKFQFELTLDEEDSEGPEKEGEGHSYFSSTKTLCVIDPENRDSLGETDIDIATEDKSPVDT

This assay deals with recombinant Human Phosphodiesterase B2 (PDE4B2) (Homo sapiens, UniProt Q07343). The assay is described as follows: Human Phosphodiesterase B2 Radiometric Assay (yttrium silicate SPA beads, [3H]cyclic AMP). Format: biochemical. Particulars: recombinant human PDE4B2, radiometric SPA assay, 8 nM [3H]cyclic AMP; read-out: PDE4B2 pIC50 (converted). An outline of the steps:
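Read-out is scintillation proximity: yttrium silicate beads (with 18 mM ZnSO4, added to stop the reaction) bind 5′AMP formed from 8 nM [3H]cAMP over 20 min. Beforehand, compound and 0.1 mg/mL enzyme were preincubated 30 min at 30 °C in pH 7.5 HEPES buffer with MgCl2, EGTA and Brij 35; pIC50 values were curve-fitted.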
Consider `Cc1nc2ccccn2c1CN[C@H]1CC[C@@H](n2c(=O)c3cc(F)cnc3n(-c3cccc(-c4ccc(O)cc4CN4CCOCC4)c3)c2=O)CC1` [Example 370, 6-fluoro-1-[4′-hydroxy-2′-(morpholin-4-ylmethyl)biphenyl-3-yl]-3-(cis-4-{[(2-methylimidazo[1,2-a]pyridin-3-yl)methyl]amino}cyclohexyl)pyrido[2,3-d]pyrimidine-2,4(1H,3H)-dione], for which the IC50 was 501 pM.

For the molecule `O=c1c2cc(F)cnc2n(-c2cccc(-c3ccc(CN4CCCOCC4)cc3)c2)c(=O)n1[C@H]1CC[C@@H](NCc2cn3cc(F)ccc3n2)CC1` [Example 338, 6-fluoro-3-(cis-4-{[(6-fluoroimidazo[1,2-a]pyridin-2-yl)methyl]amino}cyclohexyl)-1-[4′-(1,4-oxazepan-4-ylmethyl)biphenyl-3-yl]pyrido[2,3-d]pyrimidine-2,4(1H,3H)-dione], the IC50 was 251 pM.

`Cc1cc(C(=O)N[C@H]2CC[C@@H](n3c(=O)c4cc(F)cnc4n(-c4cccc(-c5ccc(CNCCC(C)C)cc5)c4)c3=O)CC2)nn1C` [Example 115, N-{cis-4-[6-fluoro-1-(4′-{[(3-methylbutyl)amino]methyl}biphenyl-3-yl)-2,4-dioxo-1,4-dihydropyrido[2,3-d]-pyrimidin-3(2H)-yl]cyclohexyl}-1,5-dimethyl-1H-pyrazole-3-carboxamide]: the IC50 was 39.8 pM.

As to `CN(C)CC(=O)N[C@H]1CC[C@@H](n2c(=O)c3cc(F)cnc3n(-c3cccc(-c4ccc(CN5CCCN(C)CC5)cc4)c3)c2=O)CC1` [Example 287, N-{cis-4-[6-fluoro-1-{4′-[(4-methyl-1,4-diazepan-1-yl)methyl]biphenyl-3-yl}-2,4-dioxo-1,4-dihydropyrido[2,3-d]pyrimidin-3(2H)-yl]cyclohexyl}-N^2,N^2-dimethylglycinamide], the IC50 was 631 pM.

On to `CN(Cc1cc(O)ccc1-c1cccc(-n2c(=O)n([C@H]3CC[C@@H](NCc4cn5cc(F)ccc5n4)CC3)c(=O)c3cc(F)cnc32)c1)C1CC1` [Example 323, 1-(2′-{[cyclopropyl(methyl)amino]methyl}-4′-hydroxybiphenyl-3-yl)-6-fluoro-3-(cis-4-{[(6-fluoroimidazo[1,2-a]pyridin-2-yl)methyl]amino}cyclohexyl)pyrido[2,3-d]pyrimidine-2,4(1H,3H)-dione], for which the IC50 is 251 pM.

As for `C[C@@H]1CN(Cc2ccc(-c3cccc(-n4c(=O)n([C@H]5CC[C@@H](NC(=O)c6nc7ccccc7[nH]6)CC5)c(=O)c5cc(F)cnc54)c3)cc2)C[C@H](C)N1` [Example 305, N-{cis-4-[1-(4′-{[(3R,5S)-3,5-dimethylpiperazin-1-yl]methyl}biphenyl-3-yl)-6-fluoro-2,4-dioxo-1,4-dihydropyrido[2,3-d]pyrimidin-3(2H)-yl]cyclohexyl}-1H-benzimidazole-2-carboxamide], the IC50 was 50.1 pM.

Regarding `CNCCOc1ccc(-c2cccc(-n3c(=O)n([C@H]4CC[C@@H](NC(=O)c5cn6cc(F)ccc6n5)CC4)c(=O)c4cc(F)cnc43)c2)cc1` [Example 77, 6-fluoro-N-{cis-4-[6-fluoro-1-{4′-[2-(methylamino)ethoxy]biphenyl-3-yl}-2,4-dioxo-1,4-dihydropyrido[2,3-d]pyrimidin-3(2H)-yl]cyclohexyl}imidazo[1,2-c]pyridine-2-carboxamide], the IC50 was 25.1 pM.

Take `Cc1cc(C(=O)N[C@H]2CC[C@@H](n3c(=O)c4cc(F)cnc4n(-c4cccc(-c5ccc(CN6CCCCC6)cc5)c4)c3=O)CC2)nn1C` [Example 112, N-{cis-4-[6-fluoro-2,4-dioxo-1-[4′-(piperidin-1-ylmethyl)biphenyl-3-yl]-1,4-dihydropyrido[2,3-d]pyrimidin-3(2H)-yl]cyclohexyl}-1,5-dimethyl-1H-pyrazole-3-carboxamide]: the IC50 was 50.1 pM.

Take `O=C(N[C@H]1CC[C@@H](n2c(=O)c3cc(F)cnc3n(-c3cccc(-c4ccc(CN5CCCN(CCO)CC5)cc4)c3)c2=O)CC1)c1cn2c(n1)CCCC2` [Example 222, N-{cis-4-[6-fluoro-1-(4′-{[4-(2-hydroxyethyl)-1,4-diazepan-1-yl]methyl}biphenyl-3-yl)-2,4-dioxo-1,4-dihydropyrido[2,3-d]pyrimidin-3(2H)-yl]cyclohexyl}-5,6,7,8-tetrahydroimidazo[1,2-a]pyridine-2-carboxamide]: the IC50 is 6.31 pM.

`C[C@H]1CN(Cc2ccc(-c3cccc(-n4c(=O)n([C@H]5CC[C@@H](NC(=O)c6cn7cc(F)ccc7n6)CC5)c(=O)c5cc(F)cnc54)c3)cc2)CCN1` (relative stereo) [Example 271, 6-Fluoro-N-{cis-4-[6-fluoro-1-(4′-{[(3S)-3-methylpiperazin-1-yl]methyl}biphenyl-3-yl)-2,4-dioxo-1,4-dihydropyrido[2,3-d]pyrimidin-3(2H)-yl]cyclohexyl}imidazo[1,2-a]pyridine-2-carboxamide]: the IC50 was 7.94 pM.

With `C[C@@H]1CN(Cc2cc(O)ccc2-c2cccc(-n3c(=O)n([C@H]4CC[C@@H](NCc5cn6cc(F)ccc6n5)CC4)c(=O)c4cc(F)cnc43)c2)C[C@H](C)O1` [Example 256], the IC50 was 15.8 pM.

As to `O=c1c2cc(F)cnc2n(-c2cccc(-c3ccc(O)cc3CN3CCC[C@@H]3CO)c2)c(=O)n1[C@H]1CC[C@@H](NCc2cn3cc(F)ccc3n2)CC1` [Example 332, 6-fluoro-3-(cis-4-{[(6-fluoroimidazo[1,2-a]pyridin-2-yl)methyl]amino}cyclohexyl)-1-(4′-hydroxy-2′-{[(2R)-2-(hydroxymethyl)pyrrolidin-1-yl]methyl}biphenyl-3-yl)pyrido[2,3-d]pyrimidine-2,4(1H,3H)-dione], the IC50 is 50.1 pM.

For `CC(=O)N1CCN(Cc2ccc(-c3cccc(-n4c(=O)n([C@H]5CC[C@@H](NC(=O)c6cc(C)n(C)n6)CC5)c(=O)c5cc(F)cnc54)c3)cc2)CC1` [Example 213, N-{cis-4-[1-{4′-[(4-acetylpiperazin-1-yl)methyl]biphenyl-3-yl}-6-fluoro-2,4-dioxo-1,4-dihydropyrido[2,3-d]pyrimidin-3(2H)-yl]cyclohexyl}-1,5-dimethyl-1H-pyrazole-3-carboxamide], the IC50 was 15.8 pM.

Regarding `CN(C)Cc1cc(O)ccc1-c1cccc(-n2c(=O)n([C@H]3CC[C@@H](NC(=O)c4cn5cc(F)ccc5n4)CC3)c(=O)c3cc(F)cnc32)c1` [Example 104, N-{cis-4-[1-{2′-[(dimethylamino)methyl]-4′-hydroxybiphenyl-3-yl}-6-fluoro-2,4-dioxo-1,4-dihydropyrido[2,3-d]pyrimidin-3(2H)-yl]cyclohexyl}-6-fluoroimidazo[1,2-a]pyridine-2-carboxamide], the IC50 was 3.16 pM.

Regarding `C[C@@H](O)CN(C)Cc1cc(O)ccc1-c1cccc(-n2c(=O)n([C@H]3CC[C@@H](NCc4cn5cc(F)ccc5n4)CC3)c(=O)c3cc(F)cnc32)c1` [Example 320, 6-fluoro-3-(cis-4-{[(6-fluoroimidazo[1,2-c]pyridin-2-yl)methyl]amino}cyclohexyl)-1-(4′-hydroxy-2′-{[[(2R)-2-hydroxypropyl](methyl)amino]methyl}biphenyl-3-yl)pyrido[2,3-d]pyrimidine-2,4(1H,3H)-dione], the IC50 was 200 pM.

Consider `CN(C)Cc1cccc(-c2cccc(-n3c(=O)n([C@H]4CC[C@@H](NC(=O)c5cn6cc(F)ccc6n5)CC4)c(=O)c4cc(F)cnc43)c2)c1` [Example 16, N-{cis-4-[1-{3′-[(dimethylamino)methyl]biphenyl-3-yl}-6-fluoro-2,4-dioxo-1,4-dihydropyrido[2,3-d]pyrimidin-3(2H)-yl]cyclohexyl}-6-fluoroimidazo[1,2-a]pyridine-2-carboxamide.], for which the IC50 is 251 pM.

Take `O=C(N[C@H]1CC[C@@H](n2c(=O)c3cc(F)cnc3n(-c3cccc(-c4ccc(OCCN5CCCC5)cc4)c3)c2=O)CC1)c1cn2cc(F)ccc2n1` [Example 79, 6-fluoro-N-{cis-4-[6-fluoro-2,4-dioxo-1-[4′-(2-pyrrolidin-1-ylethoxy)biphenyl-3-yl]-1,4-dihydropyrido[2,3-d]pyrimidin-3(2H)-yl]cyclohexyl}imidazo[1,2-a]pyridine-2-carboxamide]: the IC50 was 20 pM.

In the case of `CN1CCN(CCc2ccc(-c3cccc(-n4c(=O)n([C@H]5CC[C@@H](NC(=O)c6cn7cc(F)ccc7n6)CC5)c(=O)c5cc(F)cnc54)c3)cc2)CC1` [Example 100, 6-fluoro-N-{cis-4-[6-fluoro-1-{4′-[2-(4-methylpiperazin-1-yl)ethyl]biphenyl-3-yl}-2,4-dioxo-1,4-dihydropyrido[2,3-d]pyrimidin-3(2H)-yl]cyclohexyl}imidazo[1,2-a]pyridine-2-carboxamide], the IC50 was 7.94 pM.

Take `CN(C)Cc1cc(O)ccc1-c1cccc(-n2c(=O)n([C@H]3CC[C@@H](NCc4cn5cc(F)ccc5n4)CC3)c(=O)c3cc(F)cnc32)c1` [Example 277, 1-{2′-[(dimethylamino)methyl]-4′-hydroxybiphenyl-3-yl}-6-fluoro-3-(cis-4-{[(6-fluoroimidazo[1,2-a]pyridin-2-yl)methyl]amino}cyclohexyl)pyrido[2,3-d]pyrimidine-2,4(1H,3H)-dione]: the IC50 is 794 pM.

For the molecule `CC(C)c1ccc(CN[C@H]2CC[C@@H](n3c(=O)c4cc(F)cnc4n(-c4cccc(-c5ccc(O)cc5CN5CCOCC5)c4)c3=O)CC2)cc1` [Example 283, 6-fluoro-1-[4′-hydroxy-2′-(morpholin-4-ylmethyl)biphenyl-3-yl]-3-{cis-4-[(4-isopropylbenzyl)amino]cyclohexyl} pyrido[2,3-d]pyrimidine-2,4(1H,3H)-dione], the IC50 was 1260 pM.

Take `O=c1c2cc(F)cnc2n(-c2cccc(-c3ccc(O)cc3CN3CCSCC3)c2)c(=O)n1[C@H]1CC[C@@H](NCc2cn3cc(F)ccc3n2)CC1` [Example 253, 6-Fluoro-3-(cis-4-{[(6-fluoroimidazo[1,2-c]pyridin-2-yl)methyl]amino}cyclohexyl)-1-[4′-hydroxy-2′-(thiomorpholin-4-ylmethyl)biphenyl-3-yl]pyrido[2,3-d]pyrimidine-2,4(1H,3H)-dione]: the IC50 was 15.8 pM.
